Test system: skin of the volunteers (volar surface of the forearm)
Test: Keratolytic activity: desquamation index after occlusive Finn chamber application, Protocol c)
Format: in vivo, human
Procedure: Under Protocol c) a study was carried out aimed to evaluate the Keratolytic activity of a raw, fermented papaya material for cosmetic use. The study was carried out according to a double-blinded protocol with randomisation of the application sites. Under the test, irritating products were applied to the skin of the volunteers by means of an occlusive chamber (Finn chamber, Ø 7.0 mm) containing a disc of absorbing paper wetted with a known quantity (20 μl) of product. The exposure time to the irritating product (Salicylic acid at 1.5, 3.0 and 5.0% (w/v) concentration) was 3 and 6 hours. The application site of the irritating products selected for study purposes was the volar surface of the forearm. The products were applied on the skin of the volunteers for 3 and 6 hours. • b) desquamation index on the images acquired with Comeofix® tape and Visioscan® (Courage+Khazaka electronic GmbH). Desquamation index was calculated as: DI=[2A+(T1·(1−1)+T2·(2−1)+ . . . +Tn·(n−1)]/(n+1) • The variation was calculated as: [formula] I.D. [X]0: Basal desquamation index; I.D. [X]x: Desquamation index at the x concentration (1.5, 3.0 and 5.0%) of fermented papaya or salicylic acid.

O=C(O)c1ccccc1O [SALICYLIC ACID, Salicylic acid]
Variation of desquamation index (1.5% solution, 3 h application): 2.58 ± 0.24
Variation of desquamation index (1.5% solution, 6 h application): 2.71 ± 0.36
Variation of desquamation index (3.0% solution, 3 h application): 3.12 ± 0.24
Variation of desquamation index (3.0% solution, 6 h application): 3.24 ± 0.38
Variation of desquamation index (5.0% solution, 3 h application): 3.25 ± 0.26
Variation of desquamation index (5.0% solution, 6 h application): 3.59 ± 0.43
change of desquamation index (both after 3.0 and 6.0 hours of application, result in words): increase
application time at which the maximum keratolytic action was reached (statistical analysis): 3 h
concentration at which the maximum keratolytic action was reached (statistical analysis): 3.0%

From patent publication US20070264372A1, “Cosmetic or pharmaceutical product for external use based on papaya” (priority 2006, published 2007)
